Earlier results as cited in patent publication US20180355410A1, “DIAGNOSIS AND TREATMENT OF INFECTIOUS DISEASE” (Cambridge Enterprise Limited, priority 2015, published 2018).

System: Neisseria gonorrhoeae
Conditions: EUCAST clinical breakpoint valid from 1st January 2015

MIC R-breakpoint (resistant): > 0.5 µg/mL | MIC S-breakpoint (susceptible): ≤ 0.25 µg/mL
SMILES: CC[C@H]1OC(=O)[C@H](C)[C@@H](O[C@H]2C[C@@](C)(OC)[C@@H](O)[C@H](C)O2)[C@H](C)[C@@H](O[C@@H]2O[C@H](C)C[C@H](N(C)C)[C@H]2O)[C@](C)(O)C[C@@H](C)CN(C)[C@H](C)[C@@H](O)[C@]1(C)O [Azithromycin]
